Laboratory results: ChEMBL document CHEMBL1287696, “N-substituted pyrrolidines and tetrahydrofurans as novel AMPAR positive modulators” (Bioorg Med Chem Lett, 2010)

Key:
[1] = target: T1, Glutamate receptor 2 (Homo sapiens, UniProt P42262); assay: Positive modulation of human GluA2 flip receptor by FLIPR assay relative to cyclothiazide; parameters: concentration or dose not given beside the values
[2] = target: T1, Glutamate receptor 2; assay: Positive modulation of human GluA2 flip receptor by FLIPR assay
[3] = system: Liver microsomes; assay: Intrinsic clearance in human liver microsomes; assay type: ADME, Microsome
[4] = target: Voltage-gated inwardly rectifying potassium channel KCNH2 (Homo sapiens, UniProt Q12809); assay: Displacement of [3H]-dofetilide from human hERG
Voltage-gated inwardly rectifying potassium channel KCNH2, sequence (Q12809 whole entry): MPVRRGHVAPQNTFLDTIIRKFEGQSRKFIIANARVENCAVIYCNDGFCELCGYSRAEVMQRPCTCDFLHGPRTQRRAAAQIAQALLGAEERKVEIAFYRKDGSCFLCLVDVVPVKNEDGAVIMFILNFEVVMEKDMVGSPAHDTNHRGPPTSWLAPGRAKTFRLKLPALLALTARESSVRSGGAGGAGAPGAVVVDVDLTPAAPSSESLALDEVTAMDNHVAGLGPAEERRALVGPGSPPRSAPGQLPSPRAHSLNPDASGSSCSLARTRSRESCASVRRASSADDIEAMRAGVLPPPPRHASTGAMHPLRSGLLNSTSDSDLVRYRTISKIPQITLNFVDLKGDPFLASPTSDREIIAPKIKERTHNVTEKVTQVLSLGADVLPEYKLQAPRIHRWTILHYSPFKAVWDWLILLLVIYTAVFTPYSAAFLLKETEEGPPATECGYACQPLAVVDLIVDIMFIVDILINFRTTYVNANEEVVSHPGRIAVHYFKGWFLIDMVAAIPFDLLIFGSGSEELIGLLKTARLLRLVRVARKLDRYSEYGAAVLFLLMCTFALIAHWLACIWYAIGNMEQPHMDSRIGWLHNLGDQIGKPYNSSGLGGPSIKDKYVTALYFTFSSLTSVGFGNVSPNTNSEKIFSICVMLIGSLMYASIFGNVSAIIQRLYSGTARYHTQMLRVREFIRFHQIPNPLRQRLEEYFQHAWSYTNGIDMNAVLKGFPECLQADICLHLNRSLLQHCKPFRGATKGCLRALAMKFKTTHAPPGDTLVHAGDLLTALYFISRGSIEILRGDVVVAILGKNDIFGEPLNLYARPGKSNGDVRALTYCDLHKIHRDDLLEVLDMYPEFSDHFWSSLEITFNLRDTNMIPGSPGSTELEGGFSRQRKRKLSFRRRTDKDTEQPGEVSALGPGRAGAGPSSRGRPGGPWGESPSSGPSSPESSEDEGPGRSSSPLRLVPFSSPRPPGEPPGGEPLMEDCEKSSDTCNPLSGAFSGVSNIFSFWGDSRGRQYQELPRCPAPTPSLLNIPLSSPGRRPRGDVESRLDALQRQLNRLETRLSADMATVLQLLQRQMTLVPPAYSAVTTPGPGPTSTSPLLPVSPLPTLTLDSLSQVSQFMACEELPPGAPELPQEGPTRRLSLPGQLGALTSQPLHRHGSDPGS

[5] = Ratio of drug level in brain to blood in rat
[6] = Half life in rat; assay type: ADME, organism-based; conditions: in vivo
[7] = Aqueous solubility of the compound; assay type: physicochemical; conditions: aqueous medium

T1 sequence (P42262 whole entry): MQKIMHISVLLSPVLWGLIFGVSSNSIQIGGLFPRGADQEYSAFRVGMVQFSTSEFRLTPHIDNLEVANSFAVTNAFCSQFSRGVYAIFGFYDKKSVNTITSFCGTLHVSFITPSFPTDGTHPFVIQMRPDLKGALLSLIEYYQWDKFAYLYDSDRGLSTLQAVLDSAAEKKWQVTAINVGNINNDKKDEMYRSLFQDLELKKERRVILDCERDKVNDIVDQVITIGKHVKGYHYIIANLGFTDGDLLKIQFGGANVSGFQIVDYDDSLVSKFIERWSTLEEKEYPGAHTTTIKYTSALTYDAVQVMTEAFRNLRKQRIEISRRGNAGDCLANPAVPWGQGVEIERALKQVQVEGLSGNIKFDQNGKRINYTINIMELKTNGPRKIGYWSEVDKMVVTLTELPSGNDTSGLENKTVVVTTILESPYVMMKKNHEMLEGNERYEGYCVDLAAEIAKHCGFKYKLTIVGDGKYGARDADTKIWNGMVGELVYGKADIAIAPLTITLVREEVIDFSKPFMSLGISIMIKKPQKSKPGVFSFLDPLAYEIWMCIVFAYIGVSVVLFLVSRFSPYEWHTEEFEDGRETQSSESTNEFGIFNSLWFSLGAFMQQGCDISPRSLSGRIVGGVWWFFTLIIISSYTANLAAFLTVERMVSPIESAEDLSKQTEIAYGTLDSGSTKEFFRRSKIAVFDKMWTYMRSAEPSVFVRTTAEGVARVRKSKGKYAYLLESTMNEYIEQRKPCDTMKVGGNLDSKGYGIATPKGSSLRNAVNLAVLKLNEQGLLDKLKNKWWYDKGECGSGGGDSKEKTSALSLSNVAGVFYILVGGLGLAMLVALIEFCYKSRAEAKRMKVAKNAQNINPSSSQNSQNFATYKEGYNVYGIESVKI

Activity [1] [%]	EC50 [2] [µM]	CL [3] [mL/min/g]	Kp [5]	half-life [6] [h]	solubility [7] [µg/mL]	SMILES	IC50 [4] [µM]
111	1.6	0.7				CCN1CC(c2ccc(-c3cccc(NS(C)(=O)=O)c3)cc2)[C@@H](NS(=O)(=O)C(C)C)C1 (single isomer, unassigned)	2.5
124	0.1					CC(=O)c1cccc(-c2ccc(C3COC[C@H]3NS(=O)(=O)C(C)C)cc2)c1 (single isomer, unassigned)	
117	5	0.8				CC(C)S(=O)(=O)N[C@H]1CN(C)CC1c1ccc(-c2ccc(F)nc2)cc1 (single isomer, unassigned)	1
79	4					CC(=O)Nc1cccc(-c2ccc(C3CN(C)C[C@@H]3NS(=O)(=O)C(C)C)cc2)c1 (single isomer, unassigned)	12.6
74	4					CC(C)S(=O)(=O)N[C@H]1CN(c2ccccc2)CC1c1ccc(-c2ccc(F)nc2)cc1 (single isomer, unassigned)	0.08
48	6.2					CC(C)S(=O)(=O)N[C@H]1CN(c2ccccc2)CC1c1ccc(-c2ccc(C#N)cc2)cc1 (single isomer, unassigned)	0.8
73	6.3					CC(=O)c1cccc(-c2ccc(C3CN(C)C[C@@H]3NS(=O)(=O)C(C)C)cc2)c1 (single isomer, unassigned)	7.9
89		0.7				CC(C)N1CC(c2ccc(-c3cccc(NS(C)(=O)=O)c3)cc2)[C@@H](NS(=O)(=O)C(C)C)C1 (single isomer, unassigned)	
112	0.5					CC(C)S(=O)(=O)N[C@@H]1COCC1c1ccc(-c2ccc(C#N)cc2)cc1 (single isomer, unassigned)	12.6
117	0.3	0.8				CC(C)S(=O)(=O)N[C@@H]1COCC1c1ccc(-c2ccc(F)cn2)cc1 (single isomer, unassigned)	> 63
101	2.5					CC(C)S(=O)(=O)N[C@H]1CN(C)CC1c1ccc(-c2cccnc2F)cc1 (single isomer, unassigned)	6.3
120	0.4					CC(C)S(=O)(=O)N[C@@H]1COCC1c1ccc(-c2ccsc2)cc1 (single isomer, unassigned)	
38	5					CC(C)S(=O)(=O)N[C@H]1CN(c2ccccc2)CC1c1ccc(-c2cccc(NS(C)(=O)=O)c2)cc1 (single isomer, unassigned)	
100	4					CC(C)S(=O)(=O)N[C@H]1CN(C)CC1c1ccc(-c2cccnc2)cc1 (single isomer, unassigned)	31.6
26	79.4					CC(C)S(=O)(=O)N[C@H]1CN(C)CC1c1ccc(-c2cccc(C(F)(F)F)c2)cc1 (single isomer, unassigned)	
131	0.3	0.6				CC(C)S(=O)(=O)N[C@@H]1COCC1c1ccc(-c2cncc(F)c2)cc1 (single isomer, unassigned)	> 63
106	3.2					CC(C)S(=O)(=O)N[C@H]1CN(C)CC1c1ccc(-c2ccsc2)cc1 (single isomer, unassigned)	4
117	0.3					CC(C)S(=O)(=O)N[C@@H]1COCC1c1ccc(-c2cccs2)cc1 (single isomer, unassigned)	> 63
30	20					CC(C)N1CC(c2ccc(-c3ccc(C#N)cc3)cc2)[C@@H](NS(=O)(=O)C(C)C)C1 (single isomer, unassigned)	
109	5	0.8	1.8	> 2	> 2700	CC(C)S(=O)(=O)N[C@H]1CN(C)CC1c1ccc(-c2ccc(C#N)cc2)cc1 (single isomer, unassigned)	
29	20					CC(C)S(=O)(=O)N[C@H]1CN(C)CC1c1ccc(-c2cccs2)cc1 (single isomer, unassigned)	> 63
20	2.5					CC(C)S(=O)(=O)N[C@H]1CN(C)CC1c1ccc(-c2ccccc2F)cc1 (single isomer, unassigned)	
124	0.3				> 9000	CC(C)S(=O)(=O)N[C@H]1CN(C)CC1c1ccc(-c2cccc(NS(C)(=O)=O)c2)cc1 (single isomer, unassigned)	31.6
90	7.9	1.2				CCN1CC(c2ccc(-c3ccc(C#N)cc3)cc2)[C@@H](NS(=O)(=O)C(C)C)C1 (single isomer, unassigned)	
75	5					CC(C)S(=O)(=O)N[C@H]1CN(C)CC1c1ccc(-c2cccc(S(C)(=O)=O)c2)cc1 (single isomer, unassigned)	
125	0.3					CC(C)S(=O)(=O)N[C@@H]1COCC1c1ccc(-c2ccc(F)nc2)cc1 (single isomer, unassigned)	12.6
